In patent publication US20100317647A1 (priority 2009, published 2010):

Biological target: human Cat S (Homo sapiens, UniProt P25774)
Experiment: Cathepsin enzyme inhibition assay (fluorogenic peptide substrate cleavage)
Format: biochemical
Details: human Cat S 1 nM; substrate Z-Val-Val-Arg-AMC 20 μM; pH 6.5; fluorescence over 20 minutes
Protocol: Cathepsin Enzyme Inhibition Assay
Enzyme activity is measured by observing the increase in fluorescence intensity caused by cleavage of a peptide substrate containing a fluorophore whose emission is quenched in the intact peptide.
Assay buffer: 100 mM potassium phosphate pH 6.5, EDTA-Na 5 mM, Triton X-100 0.001%, DTT 5 mM. Enzymes (all at 1 nM): human and mouse Cathepsin S, Cat K, Cat B, Cat L. Substrate (20 μM): Z-Val-Val-Arg-AMC, except for Cat K which uses Z-Leu-Arg-AMC (both from Bachem).
AMC=7-Amino-4-Methyl-Coumarin.
DTT=dithiothreitol. Final volume: 100 μL.
Excitation 360 nm, Emission 465 nm.
Enzyme is added to the substance dilutions in 96-well microtitre plates and the reaction is started with substrate. Fluorescence emission is measured over 20 minutes, during which time a linear increase is observed in the absence of inhibitor. IC50 are calculated by standard methods. Inhibition of human Cat S, mouse Cat S, human Cat K, mouse Cat K, human Cat B, mouse Cat B, human Cat L and mouse Cat L have been measured separately. The results obtained for human Cat S are expressed in the following table.

Chain of human Cat S (P25774 115-331): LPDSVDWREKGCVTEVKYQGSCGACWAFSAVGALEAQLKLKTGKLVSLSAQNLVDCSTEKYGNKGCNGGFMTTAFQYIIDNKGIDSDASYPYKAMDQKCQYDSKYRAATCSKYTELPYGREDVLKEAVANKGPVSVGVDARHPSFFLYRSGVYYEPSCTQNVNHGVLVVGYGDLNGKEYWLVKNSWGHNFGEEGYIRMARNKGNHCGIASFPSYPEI

In order of falling IC50:
1. Cc1cc(Cl)ccc1S(=O)(=O)[C@H]1C[C@@H](C(=O)N2CCOCC2)[C@H](C(=O)N2CCC[C@H]2C#N)C1 [Example 44, (S)-1-[(1R,2R,4S)-4-(4-Chloro-2-methyl-benzenesulfonyl)-2-(morpholine-4-carbonyl)-cyclopentanecarbonyl]-pyrrolidine-2-carbonitrile]  1300 nM
2. N#CCNC(=O)[C@@H]1C[C@H](S(=O)(=O)c2ccc(F)cc2Cl)C[C@H]1COc1ccc(F)cc1 (single isomer, unassigned) [Example 144]  145 nM
3. N#CC1(NC(=O)[C@@H]2C[C@@H](S(=O)(=O)c3ccccc3Cl)C[C@H]2O)CC1 (racemic) [Example 48, (1R,2R,4R) and (1S,2S,4S)-4-(2-Chloro-benzenesulfonyl)-2-hydroxy-cyclopentanecarboxylic acid (1-cyano-cyclopropyl)-amide]  120 nM
4. CC(C)OC[C@@H]1C[C@H](S(=O)(=O)c2ccc(F)cc2Cl)C[C@H]1C(=O)NC1(C#N)CC1 [Example 156, (1R,2R,4S)-4-(2-Chloro-4-fluoro-benzenesulfonyl)-2-isopropoxymethyl-cyclopentanecarboxylic acid (1-cyano-cyclopropyl)-amide]  31.5 nM
5. CC(C)(O[C@@H]1C[C@H](S(=O)(=O)c2ccccc2Cl)C[C@H]1C(=O)NC1(C#N)CC1)c1ccc(Cl)cc1 (racemic) [Example 244, (1R,2R,4R) and (1S,2S,4S)-2-(2-(4-chlorophenyl)propan-2-yloxy)-4-(2-chlorophenylsulfonyl)-N-(1-cyanocyclopropyl)cyclopentanecarboxamide]  14.7 nM
6. CO[C@@H]1C[C@H](S(=O)(=O)c2ccc(OCC(F)(F)F)cc2Cl)C[C@H]1C(=O)NC1(C#N)CC1 (racemic) [Example 65, (1R,2R,4R) and (1S,2S,4S)-4-[2-Chloro-4-(2,2,2-trifluoro-ethoxy)-benzenesulfonyl]-2-methoxy-cyclopentanecarboxylic acid (1-cyano-cyclopropyl)-amide]  8 nM
7. N#CC1(NC(=O)[C@@H]2C[C@@H](S(=O)(=O)c3ccc(F)cc3Cl)C[C@H]2COc2cccnc2)CC1 [Example 165, (1R,2R,4S)-4-(2-Chloro-4-fluoro-benzenesulfonyl)-2-(pyridin-3-yloxymethyl)-cyclopentanecarboxylic acid (1-cyano-cyclopropyl)-amide]  6.83 nM
8. CS(=O)(=O)c1cc(Cl)ccc1CO[C@@H]1C[C@H](S(=O)(=O)c2ccccc2Cl)C[C@H]1C(=O)NC1(C#N)CC1 (racemic) [Example 248, (1R,2R,4R) and (1S,2S,4S)-4-(2-Chloro-benzenesulfonyl)-2-(4-chloro-2-methanesulfonyl-benzyloxy)-cyclopentanecarboxylic acid (1-cyano-cyclopropyl)-amide]  3.5 nM
9. CO[C@@H]1C[C@H](S(=O)(=O)c2ccc(-c3cnn(C)c3)cc2C(F)(F)F)C[C@H]1C(=O)NC1(C#N)CCN(C)CC1 (racemic) [Example 236, (1R,2R,4R) and (1S,2S,4S)-2-Methoxy-4-[4-(1-methyl-1H-pyrazol-4-yl)-2-trifluoromethyl-benzenesulfonyl]-cyclopentanecarboxylic acid (4-cyano-1-methyl-piperidin-4-yl)-amide]  1.8 nM
10. CN1CCN(C(=O)[C@@H]2C[C@H](S(=O)(=O)c3ccccc3)C[C@H]2C(=O)NC2(C#N)CC2)CC1 [Example 26, (1R,2R,4R)-4-Benzenesulfonyl-2-(4-methyl-piperazine-1-carbonyl)-cyclopentanecarboxylic acid (1-cyano-cyclopropyl)-amide]  1.5 nM
11. N#CC1(NC(=O)[C@@H]2C[C@@H](S(=O)(=O)c3ccccc3Cl)C[C@H]2Oc2ccc(Cl)cc2)CC1 (racemic) [Example 243, (1R,2R,4R) and (1S,2S,4S)-4-(2-Chloro-benzenesulfonyl)-2-(4-chloro-phenoxy)-cyclopentanecarboxylic acid (1-cyano-cyclopropyl)-amide]  1.45 nM
12. CO[C@@H]1C[C@H](S(=O)(=O)c2ccc(-c3ccc(F)cc3)cc2C(F)(F)F)C[C@H]1C(=O)NC1(C#N)CC1 (racemic) [Example 63, (1R,2R,4R) and (1S,2S,4S)-4-(4′-Fluoro-3-trifluoromethyl-biphenyl-4-sulfonyl)-2-methoxy-cyclopentanecarboxylic acid (1-cyano-cyclopropyl)-amide]  1.3 nM
13. N#CC1(NC(=O)[C@@H]2C[C@@H](S(=O)(=O)c3ccc(Br)cc3C(F)(F)F)C[C@H]2OC2CCOCC2)CC1 (racemic) [Example 169, (1R,2R,4R) and (1S,2S,4S)-4-(4-Bromo-2-trifluoromethyl-benzenesulfonyl)-2-(tetrahydro-pyran-4-yloxy)-cyclopentanecarboxylic acid (1-cyano-cyclopropyl)-amide]  1.23 nM
14. N#CC1(NC(=O)[C@@H]2C[C@@H](S(=O)(=O)c3ccccc3)C[C@H]2C(=O)N2C[C@H]3CC[C@@H](C2)O3)CC1 [Example 17, (1R,2R,4R)-4-Benzenesulfonyl-2-((1R,5S)-8-oxa-3-aza-bicyclo[3.2.1]octane-3-carbonyl)-cyclopentanecarboxylic acid (1-cyano-cyclopropyl)-amide]  1.1 nM
15. CN1CCN(c2ccc(S(=O)(=O)[C@@H]3C[C@@H](C(=O)NC4(C#N)CC4)[C@H](C(=O)N4CC(F)(F)C4)C3)c(Cl)c2)CC1 [Example 158, (1R,2R,4R)-4-[2-Chloro-4-(4-methyl-piperazin-1-yl)-benzenesulfonyl]-2-(3,3-difluoro-azetidine-1-carbonyl)-cyclopentanecarboxylic acid (1-cyano-cyclopropyl)-amide]  0.63 nM
16. CC(C)(C)N1CCN(c2ccc(S(=O)(=O)[C@@H]3C[C@@H](C(=O)NC4(C#N)CC4)[C@H](C(=O)N4CC(F)(F)C4)C3)c(C(F)(F)F)c2)CC1 [Example 130, (1R,2R,4R)-4-[4-(4-tert-Butyl-piperazin-1-yl)-2-trifluoromethyl-benzenesulfonyl]-2-(3,3-difluoro-azetidine-1-carbonyl)-cyclopentanecarboxylic acid (1-cyano-cyclopropyl)-amide]  0.4 nM
17. C[C@@H]1CN(C(=O)[C@@H]2C[C@H](S(=O)(=O)c3ccccc3)C[C@H]2C(=O)NC2(C#N)CC2)C[C@H](C)O1 [Example 16, (1R,2R,4R)-4-Benzenesulfonyl-2-((2S,6R)-2,6-dimethyl-morpholine-4-carbonyl)-cyclopentanecarboxylic acid (1-cyano-cyclopropyl)-amide]  0.4 nM
18. Cn1cc(-c2cccc(S(=O)(=O)[C@@H]3C[C@@H](C(=O)NC4(C#N)CC4)[C@H](C(=O)N4CCC(F)(F)C4)C3)c2)cn1 [Example 202, (1R,2R,4R)-2-(3,3-Difluoro-pyrrolidine-1-carbonyl)-4-[3-(1-methyl-1H-pyrazol-4-yl)-benzenesulfonyl]-cyclopentanecarboxylic acid (1-cyano-cyclopropyl)-amide]  0.38 nM
19. CCN1CCN(c2ccc(S(=O)(=O)[C@H]3C[C@@H](COc4ccc(F)cc4)[C@H](C(=O)NCC#N)C3)c(Cl)c2)CC1 [Example 147, (1R,2R,4S)-4-[2-Chloro-4-(4-ethyl-piperazin-1-yl)-benzenesulfonyl]-2-(4-fluoro-phenoxymethyl)-cyclopentanecarboxylic acid cyanomethyl-amide]  0.227 nM
20. Cc1cc(Cl)ccc1S(=O)(=O)[C@@H]1C[C@@H](C(=O)NC(C#N)c2ccccc2)[C@H](C(=O)N2CCOCC2)C1 (stereo partly drawn) [Example 31, (1R,2R,4R)-4-(4-Chloro-2-methyl-benzenesulfonyl)-2-(morpholine-4-carbonyl)-cyclopentanecarboxylic acid (cyano-phenyl-methyl)-amide]  0.2 nM
21. Cn1cc(-c2ccc(S(=O)(=O)[C@@H]3C[C@@H](C(=O)NC4(C#N)CC4)[C@H](C(=O)N4CCC(F)(F)C4)C3)c(Cl)c2)cn1 [Example 197, (1R,2R,4R)-4-[2-Chloro-4-(1-methyl-1H-pyrazol-4-yl)-benzenesulfonyl]-2-(3,3-difluoro-pyrrolidine-1-carbonyl)-cyclopentanecarboxylic acid (1-cyano-cyclopropyl)-amide]  0.14 nM
22. CO[C@@H]1C[C@H](S(=O)(=O)c2ccc(-c3ccccn3)cc2C(F)(F)F)C[C@H]1C(=O)NC1(C#N)CC1 (racemic) [Example 41, (1R,2R,4R) and (1S,2S,4S)-2-Methoxy-4-(4-pyridin-2-yl-2-trifluoromethyl-benzenesulfonyl)-cyclopentanecarboxylic acid (1-cyano-cyclopropyl)-amide]  0.1 nM
23. Cc1cc(Cl)ccc1S(=O)(=O)[C@@H]1C[C@@H](C(=O)NC2(C#N)CCN(C)CC2)[C@H](C(=O)N2CCOCC2)C1 [Example 45, (1R,2R,4R)-4-(4-Chloro-2-methyl-benzenesulfonyl)-2-(morpholine-4-carbonyl)-cyclopentanecarboxylic acid (4-cyano-1-methyl-piperidin-4-yl)-amide formiate]  0.1 nM
24. N#CC1(NC(=O)[C@@H]2C[C@@H](S(=O)(=O)c3ccc(-c4cncc(Cl)n4)cc3C(F)(F)F)C[C@H]2C(=O)N2CC(F)(F)C2)CC1 [Example 123, (1R,2R,4R)-4-[4-(6-Chloro-pyrazin-2-yl)-2-trifluoromethyl-benzenesulfonyl]-2-(3,3-difluoro-azetidine-1-carbonyl)-cyclopentanecarboxylic acid (1-cyano-cyclopropyl)-amide]  0.1 nM
